# Measurements taken from patent USRE45313E1, “Exendin variant peptides” (priority 1999, dated 2014).
# Entries after “also recorded” stand apart in the source; their conditions may differ.
# Tested on: diabetic ob/ob mice
# Experiment: Single dose effect of oral and parenteral administration on blood glucose levels in diabetic ob/ob mice (Example 24)
# Format: in vivo
# Excerpt: This was examined using Compound 5 to test the effect on blood glucose (BG) levels in the ob/ob mutant mice after intraperitoneal (i.p.) and peroral (p.o.) administration. […] Forty female diabetic ob/ob mice (Umeä strain, Bomholtgaard), which are obese due to a dominant mutant leptin (Tomita, T., Doull, V., Pollock, H. G., and Krizsan, D. 1992. Pancreatic islets of obese hyperglycemic mice (ob/ob). […] At arrival the animals were 8 weeks of age. The mice were allowed 2 weeks of acclimatization before experiments were initiated. At the time of experiment the mice were 13 weeks old with a body weight of 41.8±3.2 g (mean±SD; n=42). Handling of the mice one and three days before the experiment was performed in order to reduce stress-induced BG excursions. On the day of the experiment, blood was taken from the tip of the tail 2-3 hours after the light was turned on. A single drop of blood (<5 μl) was dropped on the glucose strip for analysis and measured by an Elite Autoanalyser, Bayer, Denmark. Whole blood glucose (BG) concentration was analysed by the immobilised glucose oxidase method. Blood glucose levels varied between normoglycaemia and severe hyperglycaemia (range: 3.6-15.6 mM; mean±SD: 9.4±3.3 mM: n=42). Six animals with BG <5.8 mM were excluded from the study (total n=36). The remaining animals were stratified based on their BG levels in order to ensure that the mean BG was similar among groups. […] Compound 5 (batch nr. ZP 3.12 fraction 1-2. […] The peptide was dissolved in sterile isotonic NaCl shortly before dosing and given in a volume of 0.2 ml. The same solutions were used for both p.o. and i.p. administration. For each animal, a data log sheet was filled out at the time of each blood sampling. […] During control conditions, BG levels in non-fasted ob/ob mice were similar in all groups (individual group data not shown), but within groups, there was a great scatter on BG levels (BG range for all animals: 5.8-15.6 mM). Therefore, to correct for the varying degree of hyperglycemia, results are expressed as the relative difference from baseline (% control). […] In most groups (5/6), BG increased between 4 and 8 hrs after drug administration. Compound 5 reduced the BG levels in a dose of 110 μg/mouse when administered i.p. in diabetic ob/ob mice (data not shown). The antidiabetic effect was observed after 60 minutes and was maximal 2-4 h after administration of the compound. […] Glucagon-like peptide-1 and the entero-insular axis in obese hyperglycaemic (ob/ob) mice.
smiles,measurement,setting,value
CCCCCCCCCCCCCCCC(=O)NCCCC[C@H](NC(=O)[C@H](CCCNC(=N)N)NC(=O)CNC(=O)[C@H](CCCCN)NC(=O)[C@@H](NC(=O)[C@H](CC(C)C)NC(=O)[C@H](Cc1c[nH]c2ccccc12)NC(=O)[C@H](C)NC(=O)[C@@H](NC(=O)[C@H](Cc1ccccc1)NC(=O)[C@H](CCC(=O)O)NC(=O)[C@H](CCCCN)NC(=O)[C@H](C)NC(=O)[C@H](C)NC(=O)[C@H](CCC(N)=O)NC(=O)CNC(=O)[C@H](CCC(=O)O)NC(=O)[C@H](CC(C)C)NC(=O)[C@H](Cc1ccc(O)cc1)NC(=O)[C@H](CO)NC(=O)[C@H](CO)NC(=O)[C@@H](NC(=O)[C@H](CC(=O)O)NC(=O)[C@H](CO)NC(=O)[C@@H](NC(=O)[C@H](Cc1ccccc1)NC(=O)[C@@H](NC(=O)CNC(=O)[C@H](CCC(=O)O)NC(=O)CNC(=O)[C@@H](N)Cc1c[nH]cn1)[C@@H](C)O)[C@@H](C)O)C(C)C)[C@@H](C)CC)C(C)C)C(=O)N[C@@H](CCCCN)C(=O)N[C@@H](CCCCN)C(=O)N[C@@H](CCCCN)C(=O)N[C@@H](CCCCN)C(=O)N[C@@H](CCCCN)C(=O)N[C@@H](CCCCN)C(N)=O [Compound 5],time of BG nadir after administration,110 μg i.p.,1 to 2 h
same,duration of effect (long-lasting effect),110 μg/mouse i.p.,> 8 h
same,effect on blood glucose (BG) levels,110 μg/mouse i.p.,reduced BG levels; also recorded: sustained decrease in BG; also recorded: effectively lowers BG levels
same,time at which antidiabetic effect was observed,110 μg/mouse i.p.,60 min
same,time of maximal antidiabetic effect after administration,110 μg/mouse i.p.,2 to 4 h
same,effect on blood glucose (BG) levels,"p.o., doses lower than 1100 μg/mouse",not at lower doses
